What all share (test): inhibition of tumour cell growth, NCI panel, 48 h
The subject of assay [1] is SR leukemia.
For assay [2], the system named is MALME-3M melanoma.
Assay [3] relates to ACHN renal.
In assay [4] the test system is PC-3 prostate.
Assay [5] has as its system SK-MEL-5 melanoma.
The test system of assay [6] is COLO 205 colon.
For assay [7], the system named is RPMI-8226 leukemia.
Assay [8] has as its system EKVX NSCLC.
Assay [9] relates to SNB-75 CNS.
The test system of assay [10] is BT-549 breast.

SMILES strings stand for the structures.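 Interpolation was linear, between the two tested concentrations surrounding the appropriate level; five concentrations were tested over 48 hours in 96-well plates. GI50 is the concentration that inhibits growth by half. TGI is the concentration that stops growth completely.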

On to `COc1cc(-c2ncn(/C=C\c3nnco3)n2)cc(C(F)(F)F)c1`, for which the GI50 in assay [1] is 21 nM; in assay [2], 464 nM; in [3] it was 318 nM; in assay [4], 189 nM; in assay [5], 411 nM; in [6] it was 67.5 nM. Moreover, the GI50 in assay [7] was 102 nM; in [8], 4660 nM; in assay [9] it was 86.3 nM; in [10], 125 nM. In addition, the TGI in [1] is greater than 100000 nM; in [2], greater than 100000 nM; in assay [3] it was greater than 100000 nM; in assay [4] it was greater than 100000 nM; in assay [5] it was 4390 nM; in assay [6], greater than 24700 nM. Moreover, the TGI in assay [7] is greater than 89100 nM; in assay [8], greater than 100000 nM; in [9], 4730 nM; in assay [10], 14300 nM.
On to `COC1=C(OC)[C@]2(OC)c3c(O)c(OC)c4c(c3O[C@@]23O[C@@H](c2ccccc2)CC=C3C1=O)[C@@H](OC)C[C@H](c1ccccc1)O4`, for which the GI50 in [1] is 31.7 nM; in assay [2], 377 nM; in assay [3], 605 nM; in [4], 706 nM; in assay [5], 739 nM; in assay [6], 326 nM. Further, the GI50 in assay [7] was 83 nM; in assay [8], 1300 nM; in assay [9], 1360 nM; in assay [10] it was 461 nM. Also, the TGI in [1] turned out to be 133 nM; in assay [2] it was 1380 nM; in assay [3], 1810 nM; in assay [4], 1840 nM; in assay [5], 1960 nM; in assay [6], 1440 nM. Also, the TGI came to 335 nM in assay [7], 2750 nM in [8], 2790 nM in [9] and 1560 nM in [10].
With `COc1ccc(OC)c(Cc2cnc3nc(N)nc(N)c3c2C)c1`, the TGI in assay [1] was 21700 nM; in assay [2], 13700 nM; in assay [3], 20100 nM; in [4], 27700 nM; in [5] it was 93800 nM; in assay [6], greater than 52600 nM. Further, the TGI in assay [7] is 15800 nM; in [8] it was greater than 83300 nM; in assay [9], 21300 nM; in assay [10] it was 43800 nM.
On to `O=C(c1ccco1)c1c(C(F)(F)F)n([O-])c2cc(F)c(F)cc2[n+]1=O`, for which the GI50 in assay [1] was 23.7 nM; in assay [2] it was 2060 nM; in assay [3] it was 122 nM; in assay [4], 147 nM; in assay [5], 256 nM; in assay [6], 229 nM. Moreover, the GI50 in assay [8] is 570 nM; in assay [10] it was 163 nM. Also, the TGI in [1] came out at 390 nM; in [2], 4210 nM; in assay [3] it was 256 nM; in assay [4] it was 435 nM; in assay [5] it was 1230 nM; in assay [6], 3060 nM. The TGI in assay [7] stood at 341 nM; in [8], 1260 nM; in assay [10], 389 nM.
`Nc1nc2ccccc2c2c1S(=O)(=O)c1ccc(Cl)cc1C2=O`: the GI50 in assay [1] was 917 nM; in assay [2] it was 1230 nM; in assay [3], 1380 nM; in [4] it was 890 nM; in [5], 2020 nM; in assay [6] it was 1940 nM. Besides, the GI50 in assay [7] was 719 nM; in assay [8], 1840 nM; in assay [10] it was 1910 nM. The TGI in assay [1] is greater than 50000 nM; in [2] it was 4250 nM; in [3], greater than 50000 nM; in [4], greater than 50000 nM; in [5], 30900 nM; in assay [6] it was 6850 nM. For the same compound, the TGI in assay [7] is 3310 nM; in assay [8], greater than 50000 nM; in [10] it was greater than 50000 nM.
On to `COc1ccc2c(c1)C(=O)c1c-2c(=O)n(CCCN(C)C)c2cc(OC)c(OC)cc12`, for which the GI50 in assay [1] was 128 nM; in [3], 2760 nM; in assay [4], 11400 nM; in assay [5] it was 86100 nM; in assay [6], 12600 nM; in assay [7], 8140 nM. The GI50 is 16500 nM in assay [8], 10100 nM in assay [9] and 83600 nM in assay [10]. Also, the TGI in assay [1] was 7630 nM; in assay [3] it was 14400 nM; in [4], 26500 nM; in assay [5] it was greater than 100000 nM; in assay [6], 25300 nM; in assay [7] it was 42300 nM. The TGI in assay [8] was 30700 nM; in assay [9] it was 23000 nM; in assay [10] it was greater than 100000 nM.

Values taken from PubChem BioAssay (NCI).
